# Laboratory results: patent publication US6486326B2, “iso-CBI and iso-CI analogs of CC-1065 duocarmycins” (The Scripps Research Institute, priority 1997, dated 2002)
# Test system: w836 DNA (146 bp)
# Assay: DNA alkylation selectivity and efficiency, thermally-induced strand cleavage of w836 DNA
# Format: biochemical
# Protocol: FIG. 6 illustsrates thermally-induced strand cleavage of w836 DNA (146 bp, nucleotide nos. 5189-91): DNA-agent incubation for 24 h ((−)-iso-CBI-TMI) at 25° C., removal of unbound agent and 30 min of thermolysis (100° C.), followed by denaturing 8% PAGE and autoradiography; lane 1, control DNA; lanes 2-5, Sanger G, C, A, and T sequencing reactions; lanes 6-8 (−)-iso-CBI-TMI ([…] to 1×10^−5 M); lanes 9-10, (+)-duocarmycin SA (1×10^−5 to 1×10^−6 M); lanes 11-12, (+)-iso-CBI-TMI (1×10^−2 and 1×10^−3).
# DNA Alkylation Selectivity and Efficiency: The DNA alkylation properties of the agents were examined within w794 and w836 duplex DNA for which comparative results are available for related agents. (Boger, D. L., et al., J. Am. Chem. Soc. 1994, 116, 11335; Boger, D. L., et al., J. Am. Chem. Soc. 1994, 116, 6461; and Boger, D. L., et al., J. Am. Chem. Soc. 1995, 117, 11647) The alkylation site identification and the assessment of the relative selectivity among the available sites were obtained by thermally-induced strand cleavage of the singly 5′ end-labeled duplex DNA after exposure to the agents. […]
structure (smiles),measurement,value
"COc1cc2cc(C(=O)N3CC4CC45C(=O)c4ccccc4C=C35)[nH]c2c(OC)c1OC (single isomer, unassigned; (-)) [(−)-iso-CBI-TMI, 2-[(5,6,7-Trimethoxyindol-2-yl)carbonyl]-1,2,9,9a-tetrahydrocyclopropa[c]benzo[f]indol-8-one]",DNA alkylation sites / selectivity,same sites as (+)-duocarmycin SA
